The results in this text go back to patent publication US12655173B2, “Hybrid amide derivatives of amphotericin B” (priority 2020, dated 2026).

The subject of one data set is Trichophyton rubrum. As to the kind of experiment: MIC against yeasts (Table 3A). It is filed as cell-based. The conditions noted are these: 3 isolates.
The subject of data set [1] is Trichophyton mentagropytes. Briefly: MIC against yeasts (Table 3A). It counts as cell-based. The conditions noted are these: 3 isolates.
In data set [2] the test system is A. funigatus (CEA10 strain). Briefly: Efficacy study against pulmonary aspergillosis in neutropenic mice: survival. It is filed as in vivo. The conditions noted are these: 15 mg/kg QD IP for 7 days, monitored until day 14. The source says:
Efficacy study (FIG. 22): Healthy mice were divided as 10 mice/group. […] Animals were infected with A. funigatus (CEA10 strain) (intranasal) on day 0. […] Survivability of the animals were monitored during the course of the study.

For a further data set, the system named is KIM1, LCN2, TIMP1, SPP1. The note with it: mouse, in vivo.

The structures appear in SMILES notation. ≈ marks a conversion by molar mass, not a printed value.

Usually MIC stands for the least concentration at which growth counts as inhibited. On to `C[C@@H]1[C@H](O)[C@@H](C)/C=C/C=C/C=C/C=C/C=C/C=C/C=C/[C@H](OC2O[C@H](C)[C@@H](O)[C@H](N)[C@@H]2O)C[C@@H]2O[C@](O)(C[C@@H](O)C[C@@H](O)[C@H](O)CC[C@@H](O)C[C@@H](O)CC(=O)O[C@H]1C)C[C@H](O)[C@H]2C(=O)O` (stereo partly shown) [AmB, Amphotericin B], for which the minimal inhibitory concentration (MIC) against Trichophyton rubrum was determined as 1.1 µM (≈ 1.02 µg/mL); in data set [1], 4 µM (≈ 3.7 µg/mL). For the same compound, in data set [2], the Survival turned out to be 80%. The “Renal toxicity biomarkers KIM1, LCN2, TIMP1, SPP1” value in the data set on KIM1, LCN2, TIMP1, SPP1 was “elevated”.
